# Assay results: patent US6603046B1, “Bis-aromatic a,β-unsaturated ketones” (Lica Pharmaceuticals A/S, priority 1992, dated 2003)
# Where “and” joins values, the source holds several entries; their conditions need not be identical. Equal entries are not always repeated. Where two headings read alike, the source gives them in different places.
# What was measured:
# [1] = test system: L. donovani promastigotes; assay: In vitro growth of L. donovani promastigotes, 3H-thymidine uptake (Example 4); type: cell-based; settings: Leishmania donovani; for inhibition at 1 µg/mL: 1 μg/ml; for inhibition at 2 µg/mL: 2 μg/ml; for inhibition at 5 µg/mL: 5 μg/ml; for inhibition at 10 µg/mL: 10 μg/ml; for inhibition at 20 µg/mL: 20 μg/ml
# Streptococcus pneumonia = assay: MIC, macrodilution (Example 17); type: cell-based; settings: Streptococcus pneumoniae; 1 strain
# L. micdadei = assay: microbe, parasite or virus in culture; type: cell-based, Legionella micdadei
# Bacillus subtilis = assay: MIC, macrodilution (Example 17); type: cell-based; settings: 1 strain
# BCG = type: cell-based; settings: n = 3
# [2] = test system: L. major WHO pentostam resistant strain promastigotes; assay: Pentostam resistant L. major promastigotes, 3H-thymidine uptake (Example 10); settings: 5 μg/ml
# [3] = test system: human lymphocytes, neutrophils, and monocytes; assay: Trypan blue dye exclusion method; type: cell-based; settings: 20 μg/ml
# Description: Trypan blue dye exclusion method. This is a standard method used to determine cell viability. The assay is performed by incubating a given cell suspension with trypan blue for various periods of time after which the cells are examined under microscope. Dead cells will take up the dye and therefore show a blue colour. Percent viability is determined by counting at least a total of 200 cells.
# Helicobacter pylori = assay: MIC on Helicobacter pylori, microaerophilic (Example 18); type: cell-based
# Description: Bacteria. 16 recent clinical isolates of Helicobacter pylori from patients with duodenal ulcer or chronic gastritis. […] Staphylococcus aureus ATCC 25923 was used as control strain. The Helicobacter pylori strains were subcultured on chocolate agar plates with cysteine in a microaerophilic atmosphere at 37° C. for 72 hours and kept frozen at −80° C. until assayed. MIC determinations. Macrodilution rows were made with Helicomedia with 2 ml in all vials. […] All dilution rows were inoculated to give a final concentration of 10^5 CFU/ml. The MIC rows were incubated under microaerophilic conditions for […]. […] The control strain Staphylococcus aureus was incubated both aerobically and microaerophilically at 37° C. for 24 hours. All plates were read by the Karber method.
# [4] = test system: Non-haemolytic streptacocci; assay: MIC, macrodilution (Example 17); type: cell-based, Non-haemolytic streptococci; settings: 1 strain
# human lymphocytes = assay: Lymphocyte Proliferation Assay, 3H-thymidine incorporation (Example 13); settings: Homo sapiens, Lymphocyte
# [5] = test system: chloroquine-sensitive P. falciparum 3D7A strain; assay: In vitro growth of P. falciparum 3D7A, 3H-hypoxanthine uptake (Example 15); type: cell-based, Plasmodium falciparum; settings: for Percentage inhibition of 3H-hypoxanthine uptake (mean ± SEM): title: percentage inhibition of 3H-hypoxanthine uptake
# L. major promastigotes [6] = assay: In vitro growth of L. major promastigotes, 3H-thymidine uptake (Example 4); type: cell-based, Leishmania major; settings: Leishmania major; for IC50: read-out: concentration for 50% inhibition; for inhibition at 1 µg/mL: 1 μg/ml; for inhibition at 2 µg/mL: 2 μg/ml; for inhibition at 5 µg/mL: 5 μg/ml; for inhibition at 10 µg/mL: 10 μg/ml; for inhibition at 20 µg/mL: 20 μg/ml
# [7] = test system: P. yoelii (strain not characterized); assay: P. yoelii (strain not characterized) infection in mice, parasitemia, drug i.p. (Example 16); type: in vivo, BALB/c mice; settings: 5 mg per kg twice daily for 8 days
# L. major promastigotes [8] = assay: L. major promastigotes from 4-days cultures, 3H-thymidine uptake (Examples 5, 14); type: cell-based, Leishmania major; settings: Leishmania major, Table 14.1, read-out: percentage inhibition of promastigotes (upper figure)
# Method in brief: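 Promastigotes harvested on day 4 of culture were exposed to compound, then pulsed with 100 μC 3H-thymidine for a further 18 h. Cells were collected on filter paper, washed, and incorporated radioactivity counted by scintillation.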
# [9] = test system: Staphylococcus aureus ATCC 25923; assay: MIC, macrodilution (Example 17); type: cell-based; settings: ATCC25923
# [10] = read-out: percentage inhibition of 3H-thymidine uptake (mean ± SEM), 3-day culture
# [11] = read-out: percentage inhibition of 3H-thymidine uptake (mean ± SEM), 6-day culture
# [12] = Helicobacter pylori, 16 clinical isolates
# [13] = read-out: inhibition of lymphocytes (lower figure)
# [14] = read-out: percentage inhibition of lymphocyte proliferation response ±SEM
smiles,measurement,setting,value
"C=CC(C)(C)c1cc(/C=C/C(=O)c2ccc(O)cc2)c(OC)cc1O [Licochalcone A, licochalcone A]",inhibition at 1 µg/mL,[1]; [10],15.2 ± 14.5%
same,inhibition at 2 µg/mL,[1]; [10],23.5 ± 16.4%
same,inhibition at 5 µg/mL,[1]; [10],53.7 ± 14%
same,inhibition at 10 µg/mL,[1]; [10],81.5 ± 8%
same,inhibition at 20 µg/mL,[1]; [10],96.7 ± 0.8%
same,inhibition at 1 µg/mL,[1]; [11],30.4 ± 23.8%
same,inhibition at 2 µg/mL,[1]; [11],42.2 ± 16.6%
same,inhibition at 5 µg/mL,[1]; [11],70.1 ± 12.4%
same,inhibition at 10 µg/mL,[1]; [11],91.9 ± 3.1%
same,inhibition at 20 µg/mL,[1]; [11],98.3 ± 0.8%
same,MIC,Streptococcus pneumonia,4 µg/mL
same,MIC,"L. micdadei; Fluoribacter gormanii, read-out: MIC-values, Legionella gormanii and the 4 L. micdadei isolates",15 to 500 µg/mL
same,MIC,"L. micdadei; Legionella micdadei, L. micdadei (Bari)",60 µg/mL
same,MIC,"L. micdadei; Legionella micdadei, L. micdadei (Detroit)",15 µg/mL
same,MIC,"L. micdadei; Legionella micdadei, L. micdadei (F 1433)",60 µg/mL
same,MIC,"L. micdadei; Legionella micdadei, L. micdadei, 1 strain",500 µg/mL
same,MIC,Bacillus subtilis,4 µg/mL
same,meanMIC,BCG,meanMIC = 8.6 μg/ml
same,meanMIC (second line),BCG,meanMIC = 40 μg/ml (n = 3)
same,rangeMIC,BCG,rangeMIC = 5-10 /ml (n = 3)
same,growth of pentostam resistant parasites,[2],completely inhibited the growth
same,"toxic effect, trypan blue dye exclusion",[3],no toxic effect
same,MIC Range,Helicobacter pylori; 16 clinical isolates,16 to 125 µg/mL
same,MIC50,Helicobacter pylori; [12],62 µg/mL
same,MIC90,Helicobacter pylori; [12],125 µg/mL
same,MIC,"Helicobacter pylori; Helicobacter pylori, read-out: MIC of the only strain with a low MIC",16 µg/mL
same,MIC,[4],4 µg/mL
same,inhibition at 0.5 µg/mL,human lymphocytes; [13],4.7%
same,inhibition at 1 µg/mL,human lymphocytes; [13],7.7%
same,inhibition at 5 µg/mL,human lymphocytes; [13],20.8%
same,inhibition at 10 µg/mL,human lymphocytes; [13],39.7%
same,inhibition at 1 µg/mL,human lymphocytes; [14],4.7 ± 5.6%
same,inhibition at 2 µg/mL,human lymphocytes; [14],7.8 ± 5.7%
same,inhibition at 5 µg/mL,human lymphocytes; [14],20.8 ± 4.8%
same,inhibition at 10 µg/mL,human lymphocytes; [14],39.7 ± 5.4%
same,inhibition at 20 µg/mL,human lymphocytes; [14],65.3 ± 7%
same,IC50,"[5]; Plasmodium falciparum, read-out: concentration in which growth was retarded by 50%",0.5 to 1 µg/mL
same,Percentage inhibition of 3H-hypoxanthine uptake (mean ± SEM),[5]; 0.1 μg/ml,15.0 ± 3.0%
same,Percentage inhibition of 3H-hypoxanthine uptake (mean ± SEM),[5]; 0.5 μg/ml,39.0 ± 6.0%
same,Percentage inhibition of 3H-hypoxanthine uptake (mean ± SEM),[5]; 1 μg/ml,69.0 ± 4.0%
same,Percentage inhibition of 3H-hypoxanthine uptake (mean ± SEM),[5]; 5 μg/ml,98.0 ± 0.001%
same,Percentage inhibition of 3H-hypoxanthine uptake (mean ± SEM),[5]; 10 μg/ml,98.0 ± 0.0001%
same,IC50,L. major promastigotes [6]; log phase promastigotes,2 to 5 µg/mL
same,inhibition at 1 µg/mL,L. major promastigotes [6]; [10],3.6 ± 11.5%
same,inhibition at 2 µg/mL,L. major promastigotes [6]; [10],14.8 ± 21.5%
same,inhibition at 5 µg/mL,L. major promastigotes [6]; [10],63.9 ± 13%
same,inhibition at 10 µg/mL,L. major promastigotes [6]; [10],91.9 ± 8.4%
same,inhibition at 20 µg/mL,L. major promastigotes [6]; [10],96 ± 7.5%
same,inhibition at 1 µg/mL,L. major promastigotes [6]; [11],15.8 ± 16.5%
same,inhibition at 2 µg/mL,L. major promastigotes [6]; [11],42.6 ± 19.7%
same,inhibition at 5 µg/mL,L. major promastigotes [6]; [11],80.7 ± 6.4%
same,inhibition at 10 µg/mL,L. major promastigotes [6]; [11],96.4 ± 1.2%
same,inhibition at 20 µg/mL,L. major promastigotes [6]; [11],99.4 ± 1.1%
same,IC50,L. major promastigotes [6]; stationary phase promastigotes,~2 µg/mL
same,"Parasitemia, mean of 3 mice",[7]; D + 1,0.03%
same,"Parasitemia, single mice",[7]; D + 1,0.05% and 0.03% and 0.02%
same,"Parasitemia, mean of 3 mice",[7]; D + 2,0.2%
same,"Parasitemia, single mice",[7]; D + 2,0.5% and 0.05% and 0.01%
same,"Parasitemia, mean of 3 mice",[7]; D + 3,1.0%
same,"Parasitemia, single mice",[7]; D + 3,2.0% and 0.5%
same,"Parasitemia, mean of 3 mice",[7]; D + 4,2.5%
same,"Parasitemia, single mice",[7]; D + 4,4.0% and 1.5% and 2.0%
same,"Parasitemia, mean of 3 mice",[7]; D + 5,2.5%
same,"Parasitemia, single mice",[7]; D + 5,4.0% and 1.5% and 2.0%
same,"Parasitemia, mean of 3 mice",[7]; D + 6,2.3%
same,"Parasitemia, single mice",[7]; D + 6,4.5% and 2.0% and 1.0%
same,"Parasitemia, mean of 3 mice",[7]; D + 7,2.2%
same,"Parasitemia, single mice",[7]; D + 7,4.0% and 1.5% and 1.0%
same,"Parasitemia, mean of 3 mice",[7]; D + 8,2.3%
same,"Parasitemia, single mice",[7]; D + 8,4.0% and 1.5%
same,"Parasitemia, mean of 3 mice",[7]; D + 9,2.2%
same,"Parasitemia, single mice",[7]; D + 9,4.0% and 1.0% and 1.5%
same,"Parasitemia, mean of 3 mice",[7]; D + 11,1.7%
same,"Parasitemia, single mice",[7]; D + 11,2.0% and 1.0%
same,"Parasitemia, mean of 3 mice",[7]; D + 12,1.7%
same,"Parasitemia, single mice",[7]; D + 12,2.0% and 1.0%
same,"Parasitemia, mean of 3 mice",[7]; D + 14,0.7%
same,"Parasitemia, single mice",[7]; D + 14,1.0% and 0.0%
same,"Parasitemia, mean of 3 mice",[7]; D + 16,0.03%
same,"Parasitemia, single mice",[7]; D + 16,0.0% and 0.1%
same,"Parasitemia, mean of 3 mice",[7]; D + 18,0.0%
same,"Parasitemia, single mice",[7]; D + 18,0.0%
same,"Parasitemia, mean of 3 mice",[7]; D + 20,0.0%
same,"Parasitemia, single mice",[7]; D + 20,0.0%
same,"Parasitemia, mean of 3 mice",[7]; D + 21,0.0%
same,"Parasitemia, single mice",[7]; D + 21,0.0%
same,inhibition at 0.5 µg/mL,L. major promastigotes [8]; 0.5 μg/ml,12%
same,inhibition at 1 µg/mL,L. major promastigotes [8]; 1 μg/ml,25%
same,inhibition at 5 µg/mL,L. major promastigotes [8]; 5 μg/ml,64%
same,inhibition at 10 µg/mL,L. major promastigotes [8]; 10 μg/ml,92%
same,MIC,[9],18 µg/mL
